{"source": "patent US20050069948A1", "about": "“Screening method” (priority 2002, published 2005)", "key": {"[1]": {"test_system": "Egr-1, TGF-β1, PDGF-B, fibronectin and α1 (I) collagen mRNA in the kidney of Zucker Fatty Rats", "test": "mRNA expression levels in the kidney of Zucker fatty rats (real time quantitative RT-PCR)", "type": "in vivo, rat", "description": "(§1) To the control group and the normal control group, i.e., male Zucker lean rats (ZL rat, Charles River Japan Inc.) with the same age, 0.5% methylcellulose 100 cP (Vehicle) was administered once per day everyday. Eight weeks after administration, urine was accumulated for 24 hours, and then the urinary albumin excretion was determined using A/G B Test Wako (Wako Pure Chemical Industries). Nine weeks after administration, the kidneys were collected and stored at −80° C., and subsequently the kidneys were crushed to extract the total RNA. The primers and fluorescent probe were prepared on the basis of the mRNA sequence previously reported, and then the amount of each of individual mRNAs was determined using ABI PRISM 7700 (Applied Biosystems) by the real time quantitative RT-PCR method."}, "male Zucker fatty rat": {"test_system": "male Zucker fatty rat", "test": "Urinary albumin excretion in Zucker fatty rats", "type": "in vivo", "description": "as §1"}, "Egr-1 mRNA": {"test_system": "Egr-1 mRNA", "test": "Egr-1 mRNA expression in rat glomerular mesangial cells after FCS or AII stimulus (RT-PCR)", "type": "cell-based", "conditions": "30 minutes after FCS (20%) stimulus; Candesartan 10^−5 M added 5 minutes before; relative value, before stimulus = 1; n = 3, Mean", "description": "Glomerular mesangial cells ([…] 7) isolated and cultivated from a male Sprague-Dawley rat (SD rat, Japan Crea) of the age of 4 weeks were cultivated in DMEM medium containing 20% fetal calf serum (FCS) for 4 days, and then the cells were cultivated in DMEM containing 0.2% bovine serum albumin for 3 days. To the cells after cultivation, FCS (20%) or angiotensin II (AII) (10^-6M) was added, and then the resulting mixture was reacted at 37° C. for 30 minutes. The AII type I receptor antagonist Candesartan of 10^-5 M as the final concentration was added to the medium 5 minutes prior to the stimulation of FCS or AII. Thirty minutes after FCS or AII stimulus, total RNA was extracted. The primers and fluorescent probe were prepared on the basis of the mRNA sequence previously reported, and subsequently the level of Egr-1 mRNA expression was determined using ABI PRISM 7700 (Applied Biosystems) by the real time quantitative RT-PCR method."}, "[2]": {"test_system": "Glomerular mesangial cells", "test": "Cytotoxicity by transfection in rat glomerular mesangial cells", "type": "cell-based", "conditions": "ODN 20 μM"}, "tissue factor mRNA": {"test_system": "tissue factor mRNA", "test": "Tissue factor mRNA expression in rat glomerular mesangial cells after bFGF stimulus (quantitative RT-PCR)", "type": "cell-based", "conditions": "ODN 20 μM for 24 hours, two hours after bFGF (3 ng/ml) stimulus, relative value, control = 1, n = 2-3, Mean", "excerpt": "(§2) Glomerular mesangial cells (passege 4-5) isolated and cultivated from a male SD rat with 4 weeks age were cultivated for 3 to 4 days in DMEM medium containing 20% fetal bovine serum to sub-confluence, and the medium was changed to DMEM containing a 0.2% bovine serum albumin and then the resulting material was subjected to serum starvation. Forty-eight hours after initiation of the serum starvation, Egr-1 AS-ODN (SEQ ID NO: 7) or a Control-ODN (the scrambled ODNs that were matched with the AS-ODN in size and the number of bases, both synthesized by BIOGNOSTIK Corp.) with a concentration of 20 μM was added to the medium and the resultant material was allowed to stand in a CO2 incubator for 24 hours. Thereafter the material was stimulated with a basic fibroblast growth factor (bFGF) (3 ng/ml), and then was reacted at 37° C. for 1 to 2 hours. A protein was extracted from the cell one hour after bFGF stimulus, and total RNA was extracted from a cell two hours after bFGF stimulus. […] The brightness accumulation value of the band thus detected was calculated by a CS Analyzer 1.00a (ATTO). Also, the mRNA expression level of the tissue factor was determined by making the primer and fluorescent probe on the basis of the mRNA sequence previously reported and by using ABI PRISM 7700 (Applied Biosystems) by means of the quantitative RT-PCR method."}, "Egr-1 protein": {"test_system": "Egr-1 protein", "sequence (P08154 whole entry)": "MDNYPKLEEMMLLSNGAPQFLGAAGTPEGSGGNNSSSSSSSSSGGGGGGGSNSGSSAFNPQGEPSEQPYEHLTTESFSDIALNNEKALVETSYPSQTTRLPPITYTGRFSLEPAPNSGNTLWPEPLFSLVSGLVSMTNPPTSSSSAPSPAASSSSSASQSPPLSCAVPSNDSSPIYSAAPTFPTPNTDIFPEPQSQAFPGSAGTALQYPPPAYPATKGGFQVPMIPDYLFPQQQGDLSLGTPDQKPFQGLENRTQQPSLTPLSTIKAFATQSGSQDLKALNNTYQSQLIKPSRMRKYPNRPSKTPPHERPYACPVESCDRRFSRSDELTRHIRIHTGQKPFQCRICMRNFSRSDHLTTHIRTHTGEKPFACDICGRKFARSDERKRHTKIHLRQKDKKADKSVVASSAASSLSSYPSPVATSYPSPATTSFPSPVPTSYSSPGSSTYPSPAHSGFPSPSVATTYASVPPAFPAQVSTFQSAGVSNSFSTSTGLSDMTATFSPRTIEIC", "test": "Egr-1 protein expression in rat glomerular mesangial cells after bFGF stimulus (Western blotting)", "type": "cell-based", "conditions": "ODN 20 μM for 24 hours, one hour after bFGF (3 ng/ml) stimulus, relative value, control = 1, n = 2-3, Mean", "excerpt": "as §2"}, "human Egr-1 (human)": {"target": "human Egr-1 (human) (UniProt P18146)", "sequence (P18146 whole entry)": "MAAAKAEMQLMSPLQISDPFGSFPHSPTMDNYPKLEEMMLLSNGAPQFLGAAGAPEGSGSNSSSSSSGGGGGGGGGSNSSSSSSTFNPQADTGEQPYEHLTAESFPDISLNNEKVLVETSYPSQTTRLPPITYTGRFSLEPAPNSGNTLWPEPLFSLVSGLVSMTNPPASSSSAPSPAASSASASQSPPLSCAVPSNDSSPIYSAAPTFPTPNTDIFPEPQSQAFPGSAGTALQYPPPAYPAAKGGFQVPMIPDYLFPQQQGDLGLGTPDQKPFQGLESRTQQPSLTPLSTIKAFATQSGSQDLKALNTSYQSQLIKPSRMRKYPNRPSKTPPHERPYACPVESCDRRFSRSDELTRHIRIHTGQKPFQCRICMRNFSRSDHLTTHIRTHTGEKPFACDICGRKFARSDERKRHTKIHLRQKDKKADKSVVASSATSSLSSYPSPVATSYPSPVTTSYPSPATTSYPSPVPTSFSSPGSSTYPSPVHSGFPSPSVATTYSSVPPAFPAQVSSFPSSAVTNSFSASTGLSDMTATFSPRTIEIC", "test": "plate assay: Egr-1 from HEK293 lysate captured on biotinylated double-stranded DNA with the Egr-1 binding sequence (SEQ ID NO: 10) on a streptavidin plate, detected with anti-Egr-1 polyclonal antibody and HRP anti-rabbit IgG"}, "[3]": {"conditions": "ZF rat, nine weeks after administration, relative value, ZL rat = 1, n = 8-9, Mean"}}, "data": [{"molecule": "CCOc1nc2cccc(C(=O)OC(C)OC(=O)OC3CCCCC3)c2n1Cc1ccc(-c2ccccc2-c2nnn[nH]2)cc1", "note": "(stereo not drawn) [Candesartan cilexetil]", "values": [{"measurement": "Increase in the level of Egr-1, TGF-β1, PDGF-B, fibronectin and α1(I) collagen mRNA expression in the kidney (in words)", "setting": "[1]; Zucker fatty rat, oral administration once per day for 9 weeks", "value": "inhibits the increase"}, {"measurement": "Urinary albumin excretion", "setting": "male Zucker fatty rat; ZF rat, orally once per day, eight weeks after administration, 24 hours urine, n = 8-9, Mean", "value": 61.7, "unit": "mg/day"}, {"measurement": "Increase in the urinary albumin excretion (in words)", "setting": "male Zucker fatty rat; Zucker fatty rat, oral administration once per day", "value": "inhibition of an increase"}]}, {"molecule": "CCOc1nc2cccc(C(=O)O)c2n1Cc1ccc(-c2ccccc2-c2nnn[nH]2)cc1", "note": "[Candesartan]", "values": [{"measurement": "Egr-1 mRNA expression level in the kidney", "setting": "[1]; [3]", "value": 1.3}, {"measurement": "Fibronectin mRNA expression level in the kidney", "setting": "[1]; [3]", "value": 1.1}, {"measurement": "PDGF-B mRNA expression level in the kidney", "setting": "[1]; [3]", "value": 1.0}, {"measurement": "TGF-β1 mRNA expression level in the kidney", "setting": "[1]; [3]", "value": 1.2}, {"measurement": "α1 (I) collagen mRNA expression level in the kidney", "setting": "[1]; [3]", "value": 1.6}, {"measurement": "Egr-1 mRNA expression level", "setting": "Egr-1 mRNA", "value": 18.4}]}, {"molecule": "AS-ODN: Egr-1 antisense oligodeoxynucleotide (SEQ ID NO: 7), synthesized by BIOGNOSTIK Corp. (antisense GCGGGGTGCAGGGGCACACT; DNA, backbone and methylation of C not given here)", "values": [{"measurement": "Cytotoxicity by transfection", "setting": "[2]", "value": "not observed"}, {"measurement": "Tissue factor mRNA expression", "setting": "tissue factor mRNA", "value": 1.1}, {"measurement": "Tissue factor mRNA expression", "setting": "tissue factor mRNA; listed as Egr-1 AS-ODN", "value": "almost completely suppressed"}, {"measurement": "Egr-1 protein expression", "setting": "Egr-1 protein", "value": 2.0}, {"measurement": "Egr-1 protein expression", "setting": "Egr-1 protein; listed as Egr-1 AS-ODN", "value": "suppressed"}]}, {"molecule": "anti-Egr-1 antigen (rabbit, polyclonal antibody, SANTA CRUZ Corp., sc-189)", "values": [{"measurement": "absorbance at 450 nm (absorbance (450 nm))", "setting": "human Egr-1 (human)", "value": 0.751}]}]}
